Laboratory results as given in patent EP4644384A1 (Shanghai Lichun Biotech Co., Ltd., priority 2023, dated 2024).

Biological target: T1, CYP11A1 (Homo sapiens, UniProt P05108)
T1 construct: host or cells: NCI-H295R human adrenocortical cancer cells
T1 sequence (P05108 40-521): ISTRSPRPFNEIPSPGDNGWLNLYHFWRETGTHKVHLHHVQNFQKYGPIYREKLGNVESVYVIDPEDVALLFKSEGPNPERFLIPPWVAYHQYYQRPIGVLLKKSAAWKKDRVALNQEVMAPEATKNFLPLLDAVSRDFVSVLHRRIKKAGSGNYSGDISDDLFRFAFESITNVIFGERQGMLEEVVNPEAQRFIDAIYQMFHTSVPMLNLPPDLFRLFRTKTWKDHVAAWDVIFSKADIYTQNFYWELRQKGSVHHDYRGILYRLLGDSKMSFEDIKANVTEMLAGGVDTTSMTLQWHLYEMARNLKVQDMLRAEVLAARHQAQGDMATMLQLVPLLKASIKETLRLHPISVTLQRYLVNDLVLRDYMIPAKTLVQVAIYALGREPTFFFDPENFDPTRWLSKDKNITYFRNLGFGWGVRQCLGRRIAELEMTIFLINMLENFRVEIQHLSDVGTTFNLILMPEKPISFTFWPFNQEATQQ
Experiment: Pregnenolone synthesis inhibition in NCI-H295R cells (pregnenolone ELISA of culture supernatant)
Format: cell-based
Settings: 24 hours incubation, pregnenolone in culture supernatant by ELISA
Source text: Conversion of cholesterol into pregnenolone is a first rate-limiting step in the synthesis of all steroid hormones in vertebrates. This conversion reaction involves a two-step continuous monooxygenation reaction catalyzed by the unique cytochrome P450scc (CYP11A) to produce C22-hydroxycholesterol and C20,C22-dihydroxycholesterol in order, followed by CYP11A1-catalyzed breakage of a C20-C22 carbon-carbon single bond in C20,C22-dihydroxycholesterol to produce one molecule of pregnenolone and one molecule of 4-methylvaleraldehyde. Therefore, the inhibitory effect of a compound on CYP11A1 was identified by detecting the ability of the compound to inhibit pregnenolone synthesis.
The ability of different compounds to inhibit pregnenolone biosynthesis was determined by detecting the concentration of pregnenolone (Abnova pregnenolone ELISA kit, KA1912) using enzyme-linked immunosorbent assay (ELISA), so as to detect the ability of the compounds to inhibit CYP11A1. […] In order to determine the half-maximal inhibitory concentrations (IC50) of CYP11A1 inhibition by different compounds, the compounds were added during NCI-H295R cell culture, and after incubation, the concentration of pregnenolone in the culture supernatant was determined.
95 µl of NCI-H295R cells were taken and cultured overnight with a specialized cell culture medium (Procell, CM-0399) in a 96-well culture plate in a cell incubator at 37°C and 5% CO2. 5 µl/well of a DMSO (Sigma, D8418) solution of the compounds to be tested at different concentrations was then added, followed by continued incubation for 24 hours. The final concentrations of the compounds to be tested were 1000 nM, 333.33 nM, 111.11 nM, 37.04 nM, 12.35 nM, 4.12 nM, 1.37 nM, 0.46 nM, and 0 nM. After the incubation was complete, the cells were centrifuged, 80 µl/well of the cell culture supernatant was obtained and 1 : 8 diluted with the cell culture medium, and the concentration of pregnenolone therein was then determined by ELISA method. During ELISA detection, a pregnenolone standard was used to generate a standard curve. The experiment was carried out with replicate wells. The ELISA well plate had been coated with an anti-pregnenolone rabbit polyclonal antibody. In ELISA plate strips, 50 µl/well of the diluted culture supernatant or standard solution or reference substance was added, followed by 100 µl of a pregnenolone-HRP complex solution, and the plate was incubated for 1 hour at room temperature on a plate shaker (QILINBEIER, QB-9002) at 200 rpm. Then, the plate was washed three times with a cleaning solution, with 300 µl each time, and patted dry on absorbent paper. 150 µl of a TMB substrate was added. The plate was incubated on the plate shaker for 10-15 minutes at room temperature, and 50 µl of a stop solution was then added. The absorbance was measured at 450 nm by a microplate reader (PerkinElmer, 2105). The IC50 value was calculated by using GraphPad Prism software. [formula]

IC50 [nM]	Compound
8.61	CN(C)S(=O)(=O)N1CCC(COc2ccc(CN3Cc4ccc(C(F)(F)F)cc4C3)n(C)c2=O)CC1 [Compound 22, N,N-dimethyl-4-(((1-methyl-2-oxo-6-((5-(trifluoromethyl)isoindolin-2-yl)methyl)-1,2-dihydropyridin-3-yl)oxy)methyl)piperidine-1-sulfonamide]
1.74	CN(C)S(=O)(=O)N1CCC(COc2ccc(CN3Cc4ccccc4C3)n(C)c2=O)CC1 [Compound 4, 4-(((6-(isoindolin-2-ylmethyl)-1-methyl-2-oxo-1,2-dihydropyridin-3-yl)oxy)methyl)-N,N-dimethylpiperidine-1-sulfonamide]
222	CS(=O)(=O)N1CCC(COc2ccc(CN3Cc4ccccc4C3)[nH]c2=O)CC1 [Compound 2, 6-(isoindolin-2-ylmethyl)-3-((1-(methylsulfonyl)piperidine-4-yl)methoxy)pyridin-2(1H)-one]
3.99	[2H]C([2H])([2H])n1c(CN2Cc3ccc(F)cc3C2)ccc(OCC2CCN(S(=O)(=O)C3COC3)CC2)c1=O [Compound 15, 6-((5-fluoroisoindolin-2-yl)methyl)-1-(methyl-d3)-3-((1-(oxetan-3-ylsulfonyl)piperidine-4-yl)methoxy)pyridin-2(1H)-one]
12	Cn1c(CN2Cc3ccc(C(F)(F)F)cc3C2)ccc(OCC2CCN(S(C)(=O)=O)CC2)c1=O [Compound 13, 1-methyl-3-((1-(methylsulfonyl)piperidine-4-yl)methoxy)-6-((5-(trifluoromethyl)isoindolin-2-yl)methyl)pyridin-2(1H)-one]
2.21	Cn1c(CN2Cc3ccc(C(F)(F)F)cc3C2)ccc(OCC2CCN(S(=O)(=O)C3CC3)CC2)c1=O [Compound 21, 3-((1-(cyclopropylsulfonyl)piperidine-4-methyl)methoxy)-1-methyl-6-((5-(trifluoromethyl)isoindolin-2-yl)methyl)pyridin-2(1H)-one]
1.98	CN(C)S(=O)(=O)N1CCC(COc2ccc(CN3Cc4ccc(F)cc4C3)n(C)c2=O)CC1 [Compound 11, 4-(((6-((5-fluoroisoindolin-2-yl)methyl)-1-methyl-2-oxo-1,2-dihydropyridin-3-yl)oxy)methyl)-N,N-dimethylpiperidine-1-sulfonamide]
8.49	Cn1c(CN2Cc3ccc(F)cc3C2)ccc(OCC2CCN(S(C)(=O)=O)CC2)c1=O [Compound 5, 6-((5-fluoroisoindolin-2-yl)methyl)-1-methyl-3-((1-(methylsulfonyl)piperidine-4-yl)methoxy)pyridin-2(1H)-one]
9.34	CC(=O)N1CCC(COc2ccc(CN3Cc4ccccc4C3)n(C)c2=O)CC1 [Compound 7, 3-((1-acetylpiperidine-4-yl)methoxy)-6-(isoindolin-2-ylmethyl)-1-methylpyridin-2(1H)-one]
2.25	Cn1c(CN2Cc3ccccc3C2)ccc(OCC2CCN(S(=O)(=O)C3CC3)CC2)c1=O [Compound 3, 3-((1-(cyclopropylsulfonyl)piperidine-4-yl)methoxy)-6-(isoindolin-2-ylmethyl)-1-methylpyridin-2(1H)-one]
0.136	CCn1c(CN2Cc3ccccc3C2)ccc(OCC2CCN(S(=O)(=O)C(F)(F)F)CC2)c1=O [Compound 27, 1-ethyl-6-(isoindolin-2-ylmethyl)-3-((1-((trifluoromethyl)sulfonyl)piperidine-4-yl)methoxy)pyridin-2(1H)-one]
3.57	Cn1c(CN2Cc3ccc(C(F)(F)F)cc3C2)ccc(OCC2CCN(S(=O)(=O)C3COC3)CC2)c1=O [Compound 23, 1-methyl-3-((1-(oxetan-3-ylsulfonyl)piperidine-4-yl)methoxy)-6-((5-(trifluoromethyl)isoindolin-2-yl)methyl)pyridin-2(1H)-one]

Compound	IC50 [nM]
Cn1c(CN2Cc3ccccc3C2)ccc(OCC2CCN(S(=O)(=O)C3COC3)CC2)c1=O [Compound 6]	1.94
